Laboratory results taken from patent publication US20260138990A1, “TRICYCLIC FUSED IMIDAZOLE COMPOUNDS AS CD38 MODULATORS AND USES THEREOF” (AEOVIAN PHARMACEUTICALS, INC., priority 2023, published 2026).
Counter-ions that a name gives are not always drawn.

Legend:
mouse CD38 = molecular target: T1, mouse CD38 (Mus musculus, UniProt P56528); experiment: NAD+ cyclase activity assay with mouse recombinant CD38 protein (ε-NAD fluorescence); assay type: biochemical; details: 0.6 nM mouse CD38, substrate ε-NAD, 30 min preincubation, fluorescence 300/410 nm
T1 construct: purchased Bio-Techne GmbH 4947-AC
T1 sequence (P56528 1-304): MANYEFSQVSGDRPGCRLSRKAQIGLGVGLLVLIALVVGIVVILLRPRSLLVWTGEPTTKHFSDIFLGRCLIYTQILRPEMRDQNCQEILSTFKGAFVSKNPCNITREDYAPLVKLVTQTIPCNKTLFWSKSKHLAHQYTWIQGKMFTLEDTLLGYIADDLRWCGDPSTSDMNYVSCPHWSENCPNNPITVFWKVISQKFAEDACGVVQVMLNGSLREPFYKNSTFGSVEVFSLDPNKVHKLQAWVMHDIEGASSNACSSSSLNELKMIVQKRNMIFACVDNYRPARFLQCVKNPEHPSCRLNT
Procedure: (§1) Example 4: NAD^+ Cydase Activity Assay with Human or Mouse Recombinant CD38 Protein
(§2) The following assay was used to determine the ability of compounds of the invention to inhibit the hydrolysis of NAD^+ by the human or mouse enzyme, CD38.
(§3) Reaction buffer: 40 mM HEPES/NaOH pH 7.5, 250 mM sucrose, 0.01% Tween
(§4) Final concentrations: 0.6 nM mouse CD38 (4947-AC, Bio-Techne GmbH) 1.9 nM human CD38 (AVI2404, Bio-Techne GmbH)
(§5) Substrate: […] Nicotinamide 1,N6-ethenoadenine dinucleotide (&-NAD)
(§6) Read-out: Fluorescence intensity (extinction 300 nm/emission 410 nm)
(§7) Required reaction buffer, required CD38 concentration in reaction buffer and required e-NAD concentration in reaction buffer were prepared. Thereafter, 8 μL of CD38 in reaction buffer was added to High Control and compound concentration wells in 384 well plate (Corning #4514, 384 well, nonbinding surface, low volume, round bottom) and 8 μL of reaction buffer to Low Control. Compound dilutions were transferred via pintool technology that transfers 42.5 nL compound dilutions (12-point dose-response with factor three dilutions in 100% DMSO) well-to-well. Plate was subsequently shaken for 15 s at 1450 rpm and sealed for incubation for 30 min at room temperature. Thereafter, 2 μL of e-NAD in reaction buffer were added with Integra Voyager. After shaking for 15 s at 1450 rpm, plate was sealed, and assay signal were measured continuously with PHERAstar® fluorescence intensity module (extinction 300 nm/emission 410 nm).
(§8) Dose-response curves were constructed using twelve-pointfactor three dilutions in triplicates per plate. High control (full enzyme activity) was set to assay signal of CD38 and e-NAD in presence of vehicle (DMSO) and Low control (full enzyme inhibition) was set to assay signal of e-NAD and vehicle (DMSO) in absence of CD38. For data analysis, fluorescent signal of traces corresponding to each compound concentration and High and Low control were monitored over time. Each run, High Control (full enzyme activity) was fitted to Linear equation via GraphPad Prism to determine CD38 activity from the slope and determine the time interval of linear phase of reaction to account for minor fluctuations. Thereafter, slopes of all compound concentrations were determined via fitting to same linear equation (GraphPad Prism) over the same time interval as determined for High control. […] Unless otherwise stated, fitting of curves were fixed to 100%-inhibition and unlocked for 0%-inhibition.

human CD38 = molecular target: T2, human CD38 (Homo sapiens, UniProt P28907); experiment: NAD+ cyclase activity assay with human recombinant CD38 protein (ε-NAD fluorescence); assay type: biochemical; details: 1.9 nM human CD38, substrate ε-NAD, 30 min preincubation, fluorescence 300/410 nm
T2 construct: purchased Bio-Techne GmbH AVI2404
T2 sequence (P28907 1-300): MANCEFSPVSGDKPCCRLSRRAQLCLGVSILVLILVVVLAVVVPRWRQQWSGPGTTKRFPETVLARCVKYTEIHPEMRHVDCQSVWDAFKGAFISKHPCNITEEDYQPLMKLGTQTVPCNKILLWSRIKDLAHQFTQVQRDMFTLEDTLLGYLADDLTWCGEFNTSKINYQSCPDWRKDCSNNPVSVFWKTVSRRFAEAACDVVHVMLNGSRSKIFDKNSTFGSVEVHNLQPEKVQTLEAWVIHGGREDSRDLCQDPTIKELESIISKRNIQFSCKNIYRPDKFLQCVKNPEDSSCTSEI
Procedure: as §1, §2, §3, §4, §5, §6, §7, §8

IC50 (mouse CD38) [nM]	IC50 (human CD38) [nM]	SMILES
1 to 10	< 30	O=C(N[C@H]1CCc2ccccc21)c1ccc2c(c1)-c1cncn1CCO2 [Compound 6A, (S)—N-(2,3-Dihydro-1H-inden-1-yl)-5,6-dihydrobenzo[f]imidazo[1,5-d][1,4]oxazepine-10-carboxamide]
1 to 10	< 30	O=C(Nc1ccc2scnc2c1)c1ccc2c(c1)-c1cncn1CCO2 [Compound 7A, N-(Benzo[d]thiazol-5-yl)-5,6-dihydrobenzo[f]imidazo[1,5-d][1,4]oxazepine-10-carboxamide]
1 to 10	< 30	O=C(Nc1ccc2c(c1)OCCO2)c1ccc2c(c1)-c1cncn1CCO2 [Compound 8A, N-(2,3-Dihydrobenzo[b][1,4]dioxin-6-yl)-5,6-dihydrobenzo[f]imidazo[1,5-d][1,4]oxazepine-10-carboxamide]
1 to 10	< 30	O=C(Nc1ccc2c(c1)CCO2)c1ccc2c(c1)-c1cncn1CCO2 [Compound 9A, N-(2,3-Dihydrobenzofuran-5-yl)-5,6-dihydrobenzo[f]imidazo[1,5-d][1,4]oxazepine-10-carboxamide]
1 to 10	< 30	O=C(Nc1ccc(C(F)(F)F)nc1)c1ccc2c(c1)-c1cncn1CCO2 [Compound 10A, N-(6-(Trifluoromethyl)pyridin-3-yl)-5,6-dihydrobenzo[f]imidazo[1,5-d][1,4]oxazepine-10-carboxamide]
> 100	> 1000	COCCO[C@H]1CC[C@H](NC(=O)c2ccc3[nH]c(=O)c4cncn4c3c2)CC1 [Compound 11A, N-((1r,4r)-4-(2-Methoxyethoxy)cyclohexyl)-4-oxo-4,5-dihydroimidazo[1,5-a]quinoxaline-8-carboxamide]
> 100	> 1000	O=C(N[C@@H]1CCS(=O)(=O)C1)c1ccc2[nH]c(=O)c3cncn3c2c1 [Compound 12A, (R)—N-(1,1-Dioxidotetrahydrothiophen-3-yl)-4-oxo-4,5-dihydroimidazo[1,5-a]quinoxaline-8-carboxamide]
> 100	> 1000	O=C(N[C@@H]1CCCOC1)c1ccc2[nH]c(=O)c3cncn3c2c1 [Compound 13A, (R)-4-Oxo-N-(tetrahydro-2H-pyran-3-yl)-4,5-dihydroimidazo[1,5-a]quinoxaline-8-carboxamide]
> 100	> 1000	O=C(N[C@@H]1CCCOC1)c1ccc2c(c1)-n1ccnc1CCO2 [Compound 14A, (R)—N-(Tetrahydro-2H-pyran-3-yl)-4,5-dihydrobenzo[b]imidazo[1,2-d][1,4]oxazepine-9-carboxamide]
> 100	> 1000	O=C(N[C@@H]1CCCOC1)c1ccc2c(c1)-n1cncc1CCO2 [Compound 15A, (R)—N-(Tetrahydro-2H-pyran-3-yl)-4,5-dihydrobenzo[b]imidazo[1,5-d][1,4]oxazepine-9-carboxamide]
> 100	> 1000	Cn1c(=O)c2cncn2c2cc(C(=O)N[C@@H]3CCCOC3)ccc21 [Compound 16A, (R)-5-Methyl-4-oxo-N-(tetrahydro-2H-pyran-3-yl)-4,5-dihydroimidazo[1,5-a]quinoxaline-8-carboxamide]
< 1	< 30	CNC(=O)[C@H]1CC[C@H](NC(=O)c2ccc3c(c2)-c2cncn2CCO3)CC1 [Compound 17A, N-((1r,4r)-4-(Methylcarbamoyl)cyclohexyl)-5,6-dihydrobenzo[f]imidazo[1,5-d][1,4]oxazepine-10-carboxamide]
< 1	< 30	CS(=O)(=O)c1cccc(NC(=O)c2ccc3c(c2)-c2cncn2CCO3)c1 [Compound 18A, N-(3-(Methylsulfonyl)phenyl)-5,6-dihydrobenzo[f]imidazo[1,5-d][1,4]oxazepine-10-carboxamide]
< 1	< 30	O=C(Nc1ccc2c(c1)CCS2(=O)=O)c1ccc2c(c1)-c1cncn1CCO2 [Compound 19A, N-(1,1-Dioxido-2,3-dihydrobenzo[b]thiophen-5-yl)-5,6-dihydrobenzo[f]imidazo[1,5-d][1,4]oxazepine-10-carboxamide]
< 1	< 30	CO[C@H]1CC[C@H](NC(=O)c2ccc3c(c2)-c2cncn2CCO3)CC1 [Compound 20A, N-((1r,4r)-4-Methoxycyclohexyl)-5,6-dihydrobenzo[f]imidazo[1,5-d][1,4]oxazepine-10-carboxamide]
< 1	< 30	CS(=O)(=O)c1cc(NC(=O)c2ccc3c(c2)-c2cncn2CCO3)ccc1F [Compound 21A, N-(4-Fluoro-3-(methylsulfonyl)phenyl)-5,6-dihydrobenzo[f]imidazo[1,5-d][1,4]oxazepine-10-carboxamide]
1 to 10	< 30	CS(=O)(=O)c1cncc(NC(=O)c2ccc3c(c2)-c2cncn2CCO3)c1 [Compound 22A, N-(5-(Methylsulfonyl)pyridin-3-yl)-5,6-dihydrobenzo[f]imidazo[1,5-d][1,4]oxazepine-10-carboxamide]
10 to 100	30 to 100	CC(C)(C)OC(=O)N1Cc2ccc(NC(=O)c3ccc4c(c3)-c3cncn3CCO4)cc2C1 [Compound 23A, tert-Butyl 5-(5,6-dihydrobenzo[f]imidazo[1,5-d][1,4]oxazepine-10-carboxamido)isoindoline-2-carboxylate]
10 to 100	30 to 100	O=C(Nc1ccc2c(c1)CNC2)c1ccc2c(c1)-c1cncn1CCO2 [Compound 24A, N-(Isoindolin-5-yl)-5,6-dihydrobenzo[f]imidazo[1,5-d][1,4]oxazepine-10-carboxamide hydrochloride]
1 to 10	< 30	CS(=O)(=O)N1Cc2ccc(NC(=O)c3ccc4c(c3)-c3cncn3CCO4)cc2C1 [Compound 25A, N-(2-(Methylsulfonyl)isoindolin-5-yl)-5,6-dihydrobenzo[f]imidazo[1,5-d][1,4]oxazepine-10-carboxamide]
10 to 100	100 to 1000	O=C(N[C@@H]1CCCOC1)c1ccc2c(c1)-c1cncn1CCCO2 [Compound 26A, (R)—N-(Tetrahydro-2H-pyran-3-yl)-6,7-dihydro-5H-benzo[b]imidazo[5,1-d][1,5]oxazocine-11-carboxamide]
1 to 10	100 to 1000	COCCNc1nc2ccc(C(=O)N[C@@H]3CCCOC3)cc2n2cncc12 [Compound 27A, (R)-4-((2-Methoxyethyl)amino)-N-(tetrahydro-2H-pyran-3-yl)imidazo[1,5-a]quinoxaline-8-carboxamide]
1 to 10	< 30	CNc1nc2ccc(C(=O)N[C@@H]3CCCOC3)cc2n2cncc12 [Compound 28A, (R)-4-(Methylamino)-N-(tetrahydro-2H-pyran-3-yl)imidazo[1,5-a]quinoxaline-8-carboxamide]
1 to 10	< 30	COCCS(=O)(=O)N[C@H]1CC[C@H](NC(=O)c2ccc3c(c2)-c2cncn2CCO3)CC1 [Compound 29A, N-((1r,4r)-4-((2-Methoxyethyl)sulfonamido)cyclohexyl)-5,6-dihydrobenzo[f]imidazo[1,5-d][1,4]oxazepine-10-carboxamide]
1 to 10	< 30	O=C(Nc1ccc2c(n1)OCCO2)c1ccc2c(c1)-c1cncn1CCO2 [Compound 30A, N-(2,3-Dihydro-[1,4]dioxino[2,3-b]pyridin-6-yl)-5,6-dihydrobenzo[f]imidazo[1,5-d][1,4]oxazepine-10-carboxamide]
